Reference: article PMC5720837, “Identification of a 4-fluorobenzyl L-valinate amide benzoxaborole (AN11736) as a potential development candidate for the treatment of Animal African Trypanosomiasis (AAT)” (Bioorganic & Medicinal Chemistry Letters, 2018)

Columns and labels:
[1] = tested on: Trypanosoma vivax (T. vivax STIB719/ILRAD 560 strain), bloodstream form; experiment: Whole cell Alamar Blue assay, T. vivax (48 h ex vivo); assay type: cell-based; details: Trypanosoma vivax; T. vivax STIB719/ILRAD 560, 48 h ex vivo Alamar Blue assay
Protocol: (§1) Activity of compounds 1–71 against T. congolense and T. vivax was determined using the whole cell assays as described ^6 and their IC50 values are summarized in Table 1.
(§2) [6] Assay methods for determination of T. c. and T. v. […] Culture media consisted of complete HMI-9 (IMDM) with 20% bovine serum. To ensure log growth phase, trypanosomes were sub-cultured at appropriate dilutions every 2–3 days. Bloodstream form Trypanosoma vivax (T. vivax) cannot be cultured axenically, therefore trypanosomes (T. vivax STIB719/ILRAD 560 strain) were harvested from a highly parasitemia mouse via cardiac puncture and used directly in the ex vivo drug sensitivity assay on the same day. […] Parasite starting concentrations of 2 × 10^5 (T. c.) and 4 × 10^5 (T. v.) were calculated respectively, using a cell analyzer system or haemo-cytometer, followed by quantification at 536 nm excitation and 588 nm emission wavelengths using a […] reader. Test compounds were prepared as 10 mg/mL DMSO stocks for each assay run. Compounds were assayed in at least three separate, independent test runs and an 11-point dilution curve was used to determine the IC50 values. Data points were averaged to generate sigmoidal dose-response curves and IC50 values were determined using Softmax Pro 5.2 software.

[2] = tested on: T. v. parasites (STIB719/ILRAD560 strain); experiment: In vivo mouse model of T. vivax infection; design: species or system NMRI female mice; details: for Efficacy in mouse model T. v., n/m (mice survived / total mice in group): 1 × 10 mg/kg, intraperitoneal, monitored 60 days post treatment; for curative efficacy in the T. v.-infected mouse model: single dose of 10 mg/kg, IP
Protocol: (§3) Selected compounds were screened in both mouse and bovine in vitro metabolic stability assays (mouse S9 and bovine S9), as summarized in Table 2. These two species were chosen because the primary in vivo assays were conducted in mice, and the target animal of this research program is cattle. […] We evaluated the efficacy of selected compounds in two in vivo mouse models of infection, against T. congolense and T. vivax, respectively. Mice were infected with either 1 × 10^5 T. c. parasites or 1 × 10^4 T. v. parasites, and then treated with a test compound via intraperitoneal administration for 1, 2 or 4 consecutive days. The mice were then monitored for the presence of parasitemia for up to 60 days post treatment.[7] We tested in T. c. model first, then followed up with T. v. for interesting compounds. […] We selected compound 5 (AN11736) to progress to exploratory studies to determine the efficacy and safety in a preliminary formulation against induced infections of T. vivax and T. congolense in cattle.[8]
(§4) [7] Methods for testing compound efficacy in mouse models: In vivo mouse efficacy studies were performed at the Swiss TPH, using established mouse models of infection for T. c. and T. v. NMRI female mice were independently infected either with 1 × 10^5T. c. parasites/mouse (STIB736/IL1180 strain) or 1 × 10^4T. v. parasites/mouse (STIB719/ILRAD560 strain) using an intraperitoneal route. Parasitemia was allowed to develop over 7 days (T. c.) or 3 days (T. v.), respectively, before treatment was administered. Compounds were administered via intraperitoneal injection in 10% DMSO/water. Four mice were used per treatment group. Mice were monitored for the presence of trypanosomes, via tail blood examination microscopically with twice-per-week parasitemia checks for 60 days post treatment. Parasitemia was graded on a scale of 0–3, with 0 indicating no trypanosomes seen in 20 fields of view, 1 indicating the presence of 1–5 trypanosomes per field, 2 indicating the presence of 6–20 trypanosomes per field and 3 indicating greater than 20 trypanosomes per field. Mice scoring 2 or 3 were immediately euthanized. After 60 days, aparasitemic mice were considered cured. Untreated control mice survive on average for 10 and 6 days post infection for T. c. and T. v., respectively. All in vivo mouse experiments were conducted in accordance with the strict guidelines set out by the Swiss Federal Veterinary Office, under the ethical approval of license number #2813.

[3] = tested on: T. c. parasites (STIB736/IL1180 strain); experiment: In vivo mouse model of T. congolense infection; design: species or system NMRI female mice; details: for Efficacy in mouse model T. c., n/m (mice survived / total mice in group): 1 × 10 mg/kg, intraperitoneal, monitored 60 days post treatment
Protocol: as §3, §4

[4] = In vitro metabolic stability, mouse S9; assay type: in vitro ADME; details: S9 fraction
Protocol: as §3

[5] = In vitro metabolic stability, bovine S9; assay type: in vitro ADME; details: S9 fraction
Protocol: as §3

[6] = tested on: Trypanosoma congolense (T. congolense IL-3000 strain), bloodstream form; experiment: Whole cell Alamar Blue assay, T. congolense (72 h in vitro); assay type: cell-based; details: Trypanosoma congolense, 72 h, T. congolense IL-3000, 72 h in vitro Alamar Blue assay
Protocol: as §1, §2

Structure (SMILES) | IC50 [1] [nM] | Efficacy in mouse model T. v., n/m (mice survived / total mice in group) [2] | Efficacy in mouse model T. c., n/m (mice survived / total mice in group) [3] | microsomal CLint [4] [µL/min/mg] | microsomal CLint [5] [µL/min/mg] | IC50 [6] [nM] | curative efficacy in the T. v.-infected mouse model [2] [%] | curative efficacy in the T. c.-infected mouse model ([3]; single dose of 10 mg/kg, IP) [%]
Cc1c(C(=O)N[C@H](C(=O)OCc2cccc(N3CCN(C)CC3)c2)C(C)C)ccc2c1B(O)OC2 [Compound 50] | 0.48 | 4/4 (1 × 10) | 1/4 (1 × 10) | 8.6 | 12.7 | 0.32 | – | –
Cc1c(C(=O)N[C@H](C(=O)OCc2cccc(CN(C)C)c2)C(C)C)ccc2c1B(O)OC2 [Compound 51] | 0.21 | 4/4 (1 × 10) | 0/4 (1 × 10) | 1.8 | 5 | 0.25 | – | –
Cc1c(C(=O)N[C@H](C(=O)OCC2CCCCC2)C(C)C)ccc2c1B(O)OC2 [Compound 62] | 0.16 | 4/4 (1 × 10) | 2/4 (1 × 10) | 10 | 20 | 0.38 | 100 | ≥ 50
Cc1c(C(=O)N[C@H](C(=O)OCC2CCOCC2)C(C)C)ccc2c1B(O)OC2 [Compound 63] | 0.09 | 4/4 (1 × 10) | 1/4 (1 × 10) | 0.9 | 1.5 | 0.39 | – | –
Cc1c(C(=O)N[C@H](C(=O)OC2CCOCC2)C(C)C)ccc2c1B(O)OC2 [Compound 69] | 1.6 | 1/4 (1 × 10) | 1/4 (1 × 10) | 0.7 | 0.6 | 0.47 | – | –
Cc1c(C(=O)N[C@H](C(=O)OC2CCC(F)(F)CC2)C(C)C)ccc2c1B(O)OC2 [Compound 70] | 2.28 | 4/4 (1 × 10) | 1/4 (1 × 10) | 1.5 | 0.3 | 0.34 | – | –
Cc1c(C(=O)N[C@H](C(=O)OCC2CCC(F)(F)CC2)C(C)C)ccc2c1B(O)OC2 [Compound 71] | 0.14 | 4/4 (1 × 10) | 3/4 (1 × 10) | 6.4 | 8.1 | 0.2 | 100 | –
